{"source": "patent US20090246212A1", "about": "“DEVELOPMENT OF METHOD FOR SCREENING FOR DRUG CAPABLE OF IMPROVING PRODUCTION OF REGULATORY T CELLS AND METHOD FOR PRODUCING REGULATORY T CELLS USING IMMUNOSUPPRESSIVE MACROLIDE ANTIBIOTIC” (KYOTO UNIVERSITY, priority 2005, published 2009)", "type_in_all_cases": "cell-based, human", "key": {"[1]": {"test_system": "CD45RA^+CD25^+CD4^+ T cell line", "assay": "Suppression assay ([^3H] thymidine uptake) of the everolimus-cultured CD45RA^+CD25^+CD4^+ T cell line", "details": "cultivation in the presence of everolimus, 50 days; compared with controls", "experimental": "(§1) CD45RA^+CD25^+CD4^+ T cells or CD45RA^+CD25^−CD4^+ T cells in human peripheral blood (5×10̂4 cells/well) were stimulated with 1×10̂5 cells/well radiated (40 Gy) allogenic PBMCs in a 96-well round-bottomed culture plate containing 200 μl per well of a proliferation medium (AlyS505N (produced by Cell Science & Technology Institute) supplemented with 2% human AB serum) in the presence of human IL-2 (1000 U/ml, produced by Cell Science & Technology Institute).\n(§2) Everolimus (100 nM or 1000 nM, produced by Novartis Pharma) was added to the medium from the start of cultivation. The everolimus was purified as follows: Certican 0.25 mg tablet (produced by Novartis Pharma) was milled and dissolved in acetone. Then, the solution was filtered, the filtrate was evaporated while rotating, and the precipitate was vacuum-dried. […]\n(§3) The indicated number of cells of the expanded CD45RA^+CD25^+CD4^+ T cell line or expanded CD45RA^+CD25^−CD4^+ T cell line, alone or along with autologous responder CD4^+ T cells (5×10̂4 cells/well), were stimulated with radiated (40 Gy) PBMCs (1×10̂5 cells/well) obtained from the same individual as the allogenic PBMCs used for the cultivation, in a proliferation medium in a round-bottomed 96-well microplate. […] Subsequently, the cells were recovered, and [^3H] thymidine uptake was measured using 1450 Microbeta TriLux (Wallac)."}, "[2]": {"test_system": "CD45RA^+CD25^−CD4^+ T cell line", "assay": "Suppression assay ([^3H] thymidine uptake) of the everolimus-cultured CD45RA^+CD25^−CD4^+ T cell line", "details": "cultivation in the presence of everolimus, 50 days; compared with the control", "experimental": "as §1, §2, §3"}, "[3]": {"test_system": "CD45RA^+CD25^+CD4^+ T cells", "assay": "Expansion culture of CD45RA^+CD25^+CD4^+ T cells with allogenic PBMCs and IL-2, everolimus added", "details": "everolimus 1000 nM from the start of cultivation", "experimental": "as §1\n(§4) Everolimus (100 nM or 1000 nM, produced by Novartis Pharma) was added to the medium from the start of cultivation. The everolimus was purified as follows: Certican 0.25 mg tablet (produced by Novartis Pharma) was milled and dissolved in acetone. Then, the solution was filtered, the filtrate was evaporated while rotating, and the precipitate was vacuum-dried. The extract obtained was dissolved in DMF and separated by HPLC (column C18 4 μm, 150×2.1 mm). After separation, the everolimus was freeze-dried and purified.\n(§5) Every 3 to 4 days, half of the medium was replaced with a fresh proliferation medium containing IL-2. If necessary, the cells were separated and repeatedly re-stimulated with radiated (40 Gy) allogenic PBMC every 10 to 14 days. Fifty days after the start of cultivation, the cells were collected and used for functional assay."}, "[4]": {"test_system": "CD45RA^+CD25^−CD4^+ T cells", "assay": "Expansion culture of CD45RA^+CD25^−CD4^+ T cells with allogenic PBMCs and IL-2, everolimus added", "details": "everolimus 100 nM or 1000 nM from the start of cultivation", "experimental": "as §1, §4, §5"}}, "data": [{"molecule": "CO[C@H]1C[C@@H]2CC[C@@H](C)[C@@](O)(O2)C(=O)C(=O)N2CCCC[C@H]2C(=O)O[C@H]([C@H](C)C[C@@H]2CC[C@@H](OCCO)[C@H](OC)C2)CC(=O)[C@H](C)/C=C(\\C)[C@@H](O)[C@@H](OC)C(=O)[C@H](C)C[C@H](C)/C=C/C=C/C=C/1C", "note": "[everolimus, 42-O-(2-hydroxy)ethyl-rapamycin]", "values": [{"measurement": "T cell line's effect on proliferation of CD4^+ T cells in response to alloantigen-presenting cells", "setting": "[1]", "value": "more strongly suppressed"}, {"measurement": "T cell line's effect on proliferation of CD4^+ T cells in response to alloantigen-presenting cells", "setting": "[2]", "value": "more strongly suppressed"}, {"measurement": "proliferation of CD45RA^+CD25^+CD4^+ T cells", "setting": "[3]", "value": "suppressed"}, {"measurement": "proliferation of CD45RA^+CD25^−CD4^+ T cells", "setting": "[4]", "value": "enhanced"}]}]}
